Reference: EP3244885B1, “LIPOIC ACID FOR TREATING OR PREVENTING THREATENED MISCARRIAGE OR PRETERM DELIVERY” (priority 2015, dated 2016)

How the values were obtained:
[1] = tested on: primigravid patients with subchorionic hematoma; assay: Randomized clinical trial, vaginal capsules of example 4 (10 mg ALA) vs. progesterone and untreated controls: reabsorption of subchorionic hematoma, pelvic pain, vaginal bleeding, abortions; type: in vivo, women; conditions: for Pel. pain, 2nd visit / Vaginal bleeding, 2nd visit: 20 days after the first visit; for Pel. pain, 2nd visit: ALA p ≤ 0.05 vs the other two groups; for Vaginal bleeding, 2nd visit: no significant differences between the three groups; for Pel. pain, visit upon enrolment / Vaginal bleeding, visit upon enrolment: share of patients with symptom at enrolment (baseline); for Improvement (%) mean ± st. error (resorption of the subchorionic hematoma): vaginal, ALA 10 mg/day or progesterone 400 mg daily, ALA p ≤ 0.05 vs progesterone and control groups
Description: Randomized trial, vaginal capsules of example 4 vs. progesterone and placebo Number of participants: […] (27 medical device, 27 progesterone, 22 placebo)
In primigravid patients between the 7th and 12th week of gestation, the trial had the following objective: • evaluating whether the administration of 10 mg ALA vaginally is associated with the reabsorption of the subchorionic hematoma.
Reduction or disappearance of: • pelvic pain • vaginal bleeding
• Women aged 20-40 • Primigravid between 7th e and 12th weeks of gestation • Presence of pelvic pain • With or without moderate vaginal bleeding • Presence of the subchorionic hematoma detected by ultrasound
(§1) • Absence of the fetus • Absence of heartbeat • Presence of uterine abnormalities • Presence of fetal abnormalities • Presence of multiple pregnancies • Presence of pre-pregnancy or gestational abnormalities • Diagnosis of allergic reaction to progesterone • Presence of ongoing therapies with anticoagulants or antihypertensives • Presence of karyotypic abnormalities
The women enrolled to be treated with ALA or progesterone were randomized into 2 groups: • 27 were administered with vaginal capsules containing 10 mg ALA 1 per day until resolution of the clinical condition • 27 were administered with vaginal capsules containing 400 mg progesterone daily.
The women in the control group were those who refuse any medical treatment.
(§2) Three visits were scheduled: • 1) Enrolment • 2) 20 days after the first visit • 3) 60 days after the first visit
In each visit, a "blinded" operator carried out the ultrasound examination to evaluate the subchorionic hematoma and the subjective (pelvic pain) and objective (vaginal bleeding) symptoms were recorded.

[2] = tested on: primigravid patients with threat of spontaneous abortion; type: in vivo, women; conditions: 60 patients per group, vaginal, ALA 10 mg/day or progesterone 400 mg daily, p ≤ 0.05; for Absence of symptoms: post treatment
Description: Randomized trial, vaginal capsules of example 4 vs. progesterone and placebo Number of participants: 120 (60 medical device, 60 progesterone)
In primigravid patients between the 7th and 12th week of gestation, the trial had the following objective: • evaluating whether the administration of 10mg ALA vaginally is associated with the reduction of the number of spontaneous abortions.
Reduction or disappearance of symptoms related to the risk of spontaneous abortion after therapy
as §1, with “•” for “• Absence of the fetus •”
The women enrolled to be treated with ALA or progesterone were randomized into 2 groups: • 60 were administered with vaginal capsules containing 10 mg ALA 1 per day until resolution of the clinical condition • 60 were administered with vaginal capsules containing 400 mg progesterone daily.
as §2

[3] = tested on: primigravid patients with subchorionic hematoma; assay: Randomized clinical trial, vaginal capsules of example 4 (10 mg ALA) vs. progesterone and untreated controls: reabsorption of subchorionic hematoma, pelvic pain, vaginal bleeding, abortions; type: in vivo, women; conditions: number of abortions per group (27 patients each); ALA p ≤ 0.05 vs progesterone and control groups
[4] = tested on: fragments of amniochorial membranes; conditions: pre-treatment with ALA; cited from earlier work

For `O=C(O)CCCCC1CCSS1` (stereo not drawn) [ALA, α-lipoic acid], which “Pel. pain, 2nd visit” value [1] is on record?
Its value is 0%.

What about the “Vaginal bleeding, 2nd visit” value [1] of the same compound?
Its value is 0%.

What about the “Pel. pain, visit upon enrolment” value [1] of the same compound?
Its value is 100%.

And the “Vaginal bleeding, visit upon enrolment” value [1]?
The value was 54%.

And the “Improvement (%) mean ± st. error (resorption of the subchorionic hematoma)” value [1]?
Its value is 83.9 ± 3.9%.

What about the Abortion [2] of the same compound?
The Abortion was 15%.

What about the Absence of symptoms [2] of the same compound?
The Absence of symptoms was 85%.

What about the Spontaneous abortions [3] of the same compound?
The Spontaneous abortions was 3.

What about the “release of MMP9 and cytokine-induced prostaglandin E2” value [4] of the same compound?
Its value is “able to inhibit”.

What about the “weakening of membranes induced by TNF” value [4] of the same compound?
The value was “able to inhibit”.

For `CC(=O)[C@H]1CC[C@H]2[C@@H]3CCC4=CC(=O)CC[C@]4(C)[C@H]3CC[C@]12C` [Progesterone, reference compound], which “Pel. pain, 2nd visit” value [1] is on record?
Its value is 14%.

And the “Vaginal bleeding, 2nd visit” value [1]?
The value was 0%.

What about the “Pel. pain, visit upon enrolment” value [1] of the same compound?
Its value is 100%.

What about the “Vaginal bleeding, visit upon enrolment” value [1] of the same compound?
The value was 57%.

And the “Improvement (%) mean ± st. error (resorption of the subchorionic hematoma)” value [1]?
The value was 49.7 ± 2.7%.

And the Abortion [2]?
The Abortion was 25%.

What about the Absence of symptoms [2] of the same compound?
Its Absence of symptoms is 75%.

And the Spontaneous abortions [3]?
Its Spontaneous abortions is 6.
